Reference: patent publication US7365174B2, “Azalide and azalactam derivatives and method for producing the same” (Meiji Seika Kaisha, Ltd., priority 2003, dated 2008)
Values after ≈ are worked out from the molar mass of the structure shown.

Columns and labels:
Assay in all cases: Antibacterial activity test (agar dilution MIC)
Type in all cases: cell-based
[1] = tested on: Staphylococcus aureus 209P JC-1; settings: test bacterium A = Staphylococcus aureus 209P JC-1; blood agar medium, 37° C., about 20 hours; read-out: Minimum inhibitory concentration (MIC)
Procedure: (§1) In vitro antibacterial activities of the compounds of Examples 13, 28, 35, 43, 53 to 55, 64, 70, 84, 90, 94, 95, 108, 128, and 129 were measured as follows by referring to the standard method of the Japanese Society of Chemotherapy (Chemotherapy, Vol. 29, pp. 76-79, 1981). The antibacterial activity of midecamycin (MDM) was similarly measured for comparison.
(§2) Using each solution of the test substance prepared in methanol at a concentration of […], 2-fold serial dilutions were prepared by using methanol. Each of the prepared solutions of the test substances was put into a petri dish in a volume of 200 μl, added with 10 ml of agar medium for sensitivity measurement added with 5% horse sterile defibrinated blood, 15 μg/ml of β-nicotinamide-adenine dinucleotide, and 2.5 μg/ml of Hemin, and mixed for dilution to prepare an agar plate containing a test substance. A predetermined volume of a liquid medium for sensitivity measurement, prepared so as to contain a given number of test bactera, was inoculated on the agar plate containing a test substance by using a micro planter (Sakuma Seisakusho), and after the inoculation, the bacteria were cultured at 37° C. for about 20 hours. After the culture, presence or absence of growth of the test bacteria on the plate was observed by visual inspection, and the minimum concentration at which growth was not observed was determined as the minimum inhibitory concentration (MIC) of the test sustance.

[2] = tested on: Streptococcus pneumoniae IP692; settings: test bacterium C = Streptococcus pneumoniae IP692; blood agar medium, 37° C., about 20 hours; read-out: Minimum inhibitory concentration (MIC)
Procedure: as §1, §2

[3] = tested on: Streptococcus pneumoniae TH-662; settings: TH662; test bacterium D = Streptococcus pneumoniae TH-662; blood agar medium, 37° C., about 20 hours; read-out: Minimum inhibitory concentration (MIC)
Procedure: as §1, §2

[4] = tested on: Moraxella catarrhalis W-0506; settings: W0506; test bacterium F = Moraxella catarrhalis W-0506; blood agar medium, 37° C., about 20 hours; read-out: Minimum inhibitory concentration (MIC)
Procedure: as §1, §2

[5] = tested on: Streptococcus pyogenes Cook; settings: test bacterium E = Streptococcus pyogenes Cook; blood agar medium, 37° C., about 20 hours; read-out: Minimum inhibitory concentration (MIC)
Procedure: as §1, §2

[6] = tested on: Streptococcus pneumoniae DP1 TypeI; settings: DP1TYPEI; test bacterium B = Streptococcus pneumoniae DP1 TypeI; blood agar medium, 37° C., about 20 hours; read-out: Minimum inhibitory concentration (MIC)
Procedure: as §1, §2

[7] = tested on: Haemophilus influenzae 9334; settings: test bacterium G = Haemophilus influenzae 9334; blood agar medium, 37° C., about 20 hours; read-out: Minimum inhibitory concentration (MIC)
Procedure: as §1, §2

Compound | MIC [1] | MIC [2] | MIC [3] | MIC [4] | MIC [5] | MIC [6] | MIC [7]
CCC(=O)O[C@@H]1CC(=O)OCCC(/C=C/Cc2ccnc3ccccc23)CN(C)C[C@H](O)[C@H](C)C[C@H](CC=O)[C@H](O[C@@H]2OC(C)[C@@H](O[C@H]3CC(C)(O)[C@@H](OC(=O)CC)C(C)O3)C(N(C)C)C2O)[C@H]1OC (single isomer, unassigned) [Example 54] | 0.13 µg/mL (≈ 0.132 µM) | 0.03 µg/mL (≈ 0.0304 µM) | 8 µg/mL (≈ 8.11 µM) | 1 µg/mL (≈ 1.01 µM) | 0.03 µg/mL (≈ 0.0304 µM) | 0.015 µg/mL (≈ 0.0152 µM) | 
CCC(=O)OC1C(C)O[C@@H](O[C@@H]2C(C)O[C@@H](O[C@H]3[C@@H](CC=O)C[C@@H](C)[C@@H](O)CN(CCCCc4ccccc4)CCCNC(=O)C[C@@H](OC(=O)CC)[C@@H]3OC)C(O)C2N(C)C)CC1(C)OC(C)=O (stereo partly drawn) [Example 13] | 0.25 µg/mL (≈ 0.259 µM) | 0.25 µg/mL (≈ 0.259 µM) | 16 µg/mL (≈ 16.6 µM) | 0.25 µg/mL (≈ 0.259 µM) | 0.25 µg/mL (≈ 0.259 µM) | 0.13 µg/mL (≈ 0.135 µM) | 0.5 µg/mL (≈ 0.519 µM)
CCC(=O)OC1C(C)O[C@@H](O[C@@H]2C(C)O[C@@H](O[C@H]3[C@@H](CC=O)C[C@@H](C)[C@@H](O)CN(C)CCC(/C=C/Cc4ccnc5ccccc45)NC(=O)C[C@@H](OC(=O)CC)[C@@H]3OC)C(O)C2N(C)C)CC1(C)O (stereo partly drawn) [Example 28] | 0.5 µg/mL (≈ 0.515 µM) | 0.13 µg/mL (≈ 0.134 µM) | 8 µg/mL (≈ 8.24 µM) | 2 µg/mL (≈ 2.06 µM) | 0.25 µg/mL (≈ 0.257 µM) | 0.03 µg/mL (≈ 0.0309 µM) | 1 µg/mL (≈ 1.03 µM)
CCC(=O)OC1C(C)O[C@@H](O[C@@H]2C(C)O[C@@H](O[C@H]3[C@@H](CC=O)C[C@@H](C)[C@@H](O)CN(C)CCC(CCCc4cnc5ccccc5c4)NC(=O)C[C@@H](OC(=O)CC)[C@@H]3OC)C(O)C2N(C)C)CC1(C)O (stereo partly drawn) [Example 35] | 1 µg/mL (≈ 1.03 µM) | 0.06 µg/mL (≈ 0.0617 µM) | 8 µg/mL (≈ 8.22 µM) | 4 µg/mL (≈ 4.11 µM) | 0.25 µg/mL (≈ 0.257 µM) | 0.03 µg/mL (≈ 0.0308 µM) | 2 µg/mL (≈ 2.06 µM)
CCC(=O)O[C@@H]1CC(=O)O[C@H](C)CCCN(CCCCc2ccccc2)C[C@H](O)[C@H](C)C[C@H](CC=O)[C@H](O[C@@H]2OC(C)[C@@H](O[C@H]3CC(C)(OC(C)=O)[C@@H](OC(=O)CC)C(C)O3)C(N(C)C)C2O)[C@H]1OC (stereo partly drawn) [Example 43] | 0.25 µg/mL (≈ 0.252 µM) | 0.06 µg/mL (≈ 0.0604 µM) | 1 µg/mL (≈ 1.01 µM) | 0.5 µg/mL (≈ 0.503 µM) | 0.13 µg/mL (≈ 0.131 µM) | 0.06 µg/mL (≈ 0.0604 µM) | 0.5 µg/mL (≈ 0.503 µM)
CCC(=O)O[C@@H]1CC(=O)O[C@@H](C/C=C/c2cnc3ccccc3c2)CCCN(C)C[C@H](O)[C@H](C)C[C@H](CC=O)[C@H](O[C@@H]2OC(C)[C@@H](O[C@H]3CC(C)(O)[C@@H](OC(=O)CC)C(C)O3)C(N(C)C)C2O)[C@H]1OC (stereo partly drawn) [Example 53] | 0.5 µg/mL (≈ 0.507 µM) | 0.03 µg/mL (≈ 0.0304 µM) | 8 µg/mL (≈ 8.11 µM) | 1 µg/mL (≈ 1.01 µM) | 0.06 µg/mL (≈ 0.0608 µM) | 0.015 µg/mL (≈ 0.0152 µM) | 2 µg/mL (≈ 2.03 µM)
CCC(=O)O[C@@H]1CC(=O)OCCC(/C=C/Cc2ccnc3ccccc23)CN(C)C[C@H](O)[C@H](C)C[C@H](CC=O)[C@H](O[C@@H]2OC(C)[C@@H](O)C(N(C)C)C2O)[C@H]1OC (stereo partly drawn) [Example 55] | 0.5 µg/mL (≈ 0.636 µM) | 0.03 µg/mL (≈ 0.0382 µM) | > 128 µg/mL | 0.25 µg/mL (≈ 0.318 µM) | 0.06 µg/mL (≈ 0.0763 µM) | 0.03 µg/mL (≈ 0.0382 µM) | 
CCC(=O)O[C@@H]1CC(=O)NCCCCN(CCCCc2ccccc2)C[C@H](O)[C@H](C)C[C@H](CC=O)[C@H](O[C@@H]2OC(C)[C@@H](O[C@H]3CC(C)(OC(C)=O)[C@@H](OC(=O)CC)C(C)O3)C(N(C)C)C2O)[C@H]1OC (stereo partly drawn) [Example 64] | 0.25 µg/mL (≈ 0.256 µM) | 0.25 µg/mL (≈ 0.256 µM) | 8 µg/mL (≈ 8.18 µM) | 0.25 µg/mL (≈ 0.256 µM) | 0.06 µg/mL (≈ 0.0613 µM) | 0.13 µg/mL (≈ 0.133 µM) | 1 µg/mL (≈ 1.02 µM)
CCC(=O)O[C@@H]1CC(=O)O[C@@H](C/C=C/c2ccc3ccccc3c2)CCCN(C)C[C@H](O)[C@H](C)C[C@H](CC=O)[C@H](O[C@@H]2OC(C)[C@@H](O[C@H]3CC(C)(O)[C@@H](OC(=O)CC)C(C)O3)C(N(C)C)C2O)[C@H]1OC (stereo partly drawn) [Example 84] | 0.5 µg/mL (≈ 0.507 µM) | 0.06 µg/mL (≈ 0.0609 µM) | 8 µg/mL (≈ 8.12 µM) | 2 µg/mL (≈ 2.03 µM) | 0.25 µg/mL (≈ 0.254 µM) | 0.06 µg/mL (≈ 0.0609 µM) | 8 µg/mL (≈ 8.12 µM)
CCC(=O)O[C@@H]1CC(=O)O[C@@H](C/C=C/c2cnc3ccccc3c2)CCCN(C)C[C@H](O)[C@H](C)C[C@H](CC=O)[C@H](O[C@@H]2OC(C)[C@@H](O[C@H]3CC(C)(OC(C)=O)[C@@H](OC(=O)CC)C(C)O3)C(N(C)C)C2O)[C@H]1OC (stereo partly drawn) [Example 90] | 0.25 µg/mL (≈ 0.243 µM) | 0.03 µg/mL (≈ 0.0292 µM) | 0.25 µg/mL (≈ 0.243 µM) | 1 µg/mL (≈ 0.973 µM) | 0.03 µg/mL (≈ 0.0292 µM) | 0.015 µg/mL (≈ 0.0146 µM) | 4 µg/mL (≈ 3.89 µM)
CCC(=O)O[C@@H]1CC(=O)O[C@@H](C/C=C/c2cnc3ncccc3c2)CCCN(C)C[C@H](O)[C@H](C)C[C@H](CC=O)[C@H](O[C@@H]2OC(C)[C@@H](O[C@H]3CC(C)(OC(C)=O)[C@@H](OC(=O)CC)C(C)O3)C(N(C)C)C2O)[C@H]1OC (stereo partly drawn) [Example 94] | 0.5 µg/mL (≈ 0.486 µM) | 0.03 µg/mL (≈ 0.0291 µM) | 0.5 µg/mL (≈ 0.486 µM) | 1 µg/mL (≈ 0.972 µM) | 0.06 µg/mL (≈ 0.0583 µM) | 0.015 µg/mL (≈ 0.0146 µM) | 4 µg/mL (≈ 3.89 µM)
CCC(=O)O[C@@H]1CC(=O)O[C@@H](C/C=C/c2ccc3ccccc3c2)CCCN(C)C[C@H](O)[C@H](C)C[C@H](CC=O)[C@H](O[C@@H]2OC(C)[C@@H](O[C@H]3CC(C)(OC(C)=O)[C@@H](OC(=O)CC)C(C)O3)C(N(C)C)C2O)[C@H]1OC (stereo partly drawn) [Example 95] | 1 µg/mL (≈ 0.973 µM) | 0.13 µg/mL (≈ 0.127 µM) | 1 µg/mL (≈ 0.973 µM) | 4 µg/mL (≈ 3.89 µM) | 0.25 µg/mL (≈ 0.243 µM) | 0.06 µg/mL (≈ 0.0584 µM) | 32 µg/mL (≈ 31.2 µM)
CCC(=O)O[C@@H]1CC(=O)O[C@@H](C/C=C/c2cccc(-c3cccnc3)c2)CCCN(C)C[C@H](O)[C@H](C)C[C@H](CC=O)[C@H](O[C@@H]2OC(C)[C@@H](O[C@H]3CC(C)(OC(C)=O)[C@@H](OC(=O)CC)C(C)O3)C(N(C)C)C2O)[C@H]1OC (stereo partly drawn) [Example 108] | 0.5 µg/mL (≈ 0.474 µM) | 0.06 µg/mL (≈ 0.0569 µM) | 0.5 µg/mL (≈ 0.474 µM) | 2 µg/mL (≈ 1.9 µM) | 0.13 µg/mL (≈ 0.123 µM) | 0.03 µg/mL (≈ 0.0285 µM) | 8 µg/mL (≈ 7.59 µM)
CCCC(=O)O[C@H]1C(C)O[C@@H](O[C@@H]2C(C)O[C@@H](O[C@H]3[C@@H](CC=O)C[C@@H](C)[C@@H](O)CN(C)CCC[C@H](C/C=C/c4cnc5ccccc5c4)OC(=O)C[C@@H](O)[C@@H]3OC)C(O)C2N(C)C)CC1(C)OC(=O)CC (stereo partly drawn) [Example 128] | 0.5 µg/mL (≈ 0.5 µM) | 0.03 µg/mL (≈ 0.03 µM) | 0.13 µg/mL (≈ 0.13 µM) | 1 µg/mL (≈ 1 µM) | 0.06 µg/mL (≈ 0.06 µM) | 0.03 µg/mL (≈ 0.03 µM) | 16 µg/mL (≈ 16 µM)
